Measured values from patent US4758555A, “Method for treating convulsions and epilepsy with organic copper compounds” (priority 1986, dated 1988).
“Also recorded” adds a separate entry of the source.

Experiments:
[1] = Anticonvulsant activity, both or unspecified seizure models; assay type: in vivo, male Carworth Farms #1 mice or Sprague-Dawley rats
[2] = Rotating rod neurotoxicity; details: dose and time given in the source
[3] = Subcutaneous Pentylenetetrazol (Metrazol) Seizure Threshold Test; assay type: in vivo, male Carworth Farms #1 mice or Sprague-Dawley rats
[4] = Lethality / acute toxicity (LD50 in 24 hours); details: for Lethality (in words): dose and time given in the source; for Doses causing death in some of the test groups: in vivo
Description: Test compounds were either dissolved in 0.9% saline, or suspended in either 30% polyethylene glycol 400 in 0.9% saline or 0.2% suspending agent like polyoxyethylene glycol or Tween 80 in 0.9% saline prior to injection into male Carworth Farms #1 mice or Sprague-Dawley rats.
In Phase I identification of anticonvulsant activity, test compounds were given intraperitoneally (IP) at 30, 100, 300 and, in some cases, 600 milligrams per kilogram (mg/kg) of body weight and protection against Maximal Electroshock and/or Metrazol-induced seizures was determined 30 minutes, 4 hours, or later. […] Subsequently the routine protocol was modified and certain of the test compounds (see Tables, infra) re-evaluated following subcutaneous (SC) injection at periods of up to 8 hours post injection.
All statistics were obtained by probit analyses.

[5] = Maximal Electroshock Seizure Test; assay type: in vivo, male Carworth Farms #1 mice or Sprague-Dawley rats; details: for Anticonvulsant activity, Maximal Electroshock (Phase I): Table II; for Anticonvulsant activity, Maximal Electroshock: Table VI; for Protection Against Seizure: Table IX, maximal electroshock, intraperitoneal, 65 mg/kg, 5 animals
[6] = Sleep time / hypnosis or sedation; assay type: in vivo; details: Table IX, intraperitoneal, 65 mg/kg; for Average Sleep Time: 5 animals
Protocol: In Phase I identification of anticonvulsant activity, test compounds were given intraperitoneally (IP) at 30, 100, 300 and, in some cases, 600 milligrams per kilogram (mg/kg) of body weight and protection against Maximal Electroshock and/or Metrazol-induced seizures was determined 30 minutes, 4 hours, or later. […] Subsequently the routine protocol was modified and certain of the test compounds (see Tables, infra) re-evaluated following subcutaneous (SC) injection at periods of up to 8 hours post injection. Subcutaneous administration can be helpful in determining whether or not hypnotic activity can be distinguished from anticonvulsant activity based upon the decreased rate of absorption associated with this route of administration as opposed to the more rapid rate of absorption associated with IP administration.

[7] = 85 mg/kg subcutaneous; cited from earlier work
[8] = mouse, in vivo; cited from earlier work

CC(=O)CC(C)=NCCN=C(C)CC(C)=O.[Cu] [Cu(II) Bisacetylacetonethyleneimine]
Anticonvulsant activity (in words) ([1]; running text): effective in preventing both Maximal Electroshock and Metrazol-induced seizures | Rotating rod toxicity (in words) ([2]; listed as bisacetylacetonethyleneimine complex): rotating rod toxicity, which may also have been due to hypnotic activity, was found at the higher doses studied

CC(=O)Nc1ccc(C(=O)[O-])c(O)c1.CC(=O)Nc1ccc(C(=O)[O-])c(O)c1.[Cu+2] [Cu(II)(4-acetylaminosalicylate)2]
Anticonvulsant activity, Metrazol (Phase I) ([3]; Table II, IP): I | Anticonvulsant activity (in words) ([1]; running text): effective in preventing seizures | Lethality (in words) [4]: Lethal at 100 mg/kg at 4 hours

Nc1ccc(C(=O)[O-])c(O)c1.Nc1ccc(C(=O)[O-])c(O)c1.[Cu+2] [Cu(II)(4-aminosalicylate)2]
Anticonvulsant activity, Maximal Electroshock (Phase I) ([5]; IP): I | Anticonvulsant activity (in words) ([1]; running text): effective in preventing seizures | Doses causing death in some of the test groups [4]: higher than 300 mg/kg | Lethality (in words) [4]: Lethal at higher doses

O=C([O-])c1ccc([N+](=O)[O-])cc1O.O=C([O-])c1ccc([N+](=O)[O-])cc1O.[Cu+2] [Cu(II)(4-nitrosalicylate)2]
Anticonvulsant activity, Maximal Electroshock (Phase I) ([5]; IP): I | Anticonvulsant activity (in words) ([1]; running text): effective in preventing seizures | Doses causing death in some of the test groups [4]: higher than 100 mg/kg

CC[C@H](C)[C@H](N)C(=O)[O-].CC[C@H](C)[C@H](N)C(=O)[O-].[Cu+2] [Cu(II)(L-isoleucinate)2]
Anticonvulsant activity (in words) ([1]; listed as isoleucine complex): inhibited both the Maximal Electroshock and Metrazol-induced seizures in these Phase I tests | Anticonvulsant activity (in words) ([1]; running text): found to have anticonvulsant activity | Lethality (in words) [4]: Lethal at higher doses

C1CCc2nnnn2CC1.[Cl-].[Cl-].[Cu+2] [Cu(II)(Metrazol)Cl2]
Anticonvulsant activity, Maximal Electroshock ([5]; IP): I | Anticonvulsant activity, Maximal Electroshock ([5]; SC at site different from injection of Metrazol): I | Anticonvulsant activity (in words) ([1]; running text): some anticonvulsant activity when injected at a site different from the site of Metrazol injection | Rotating rod toxicity (in words) [2]: no rotating rod toxicity at doses up to 600 mg/kg

CCC1(CCC(C)C)C(=O)[N-]C(=O)NC1=O.CCC1(CCC(C)C)C(=O)[N-]C(=O)NC1=O.[Cu+2] [Cu(II)(amobarbital)2]
Protection Against Seizure [5]: 100 Percent protected | Sleep (in words) [6]: All animals slept | Average Sleep Time [6]: 16 min | Potency or effectiveness relative to a comparator (in words) ([1]; in vivo): more potent anticonvulsant than sodium (Na) amobarbital

O=C(O)c1ccccc1[O-].O=C(O)c1ccccc1[O-].[Cu+2] [Cu(II)(salicylate)2]
ED50 for protection against Maximal Electroshock-induced seizures ([5]; Phase II, SC): 360 mg/kg | Time of peak effect, inhibition of Maximal Electroshock induced seizures ([5]; SC, 600 mg/kg, Phase II): 7 h | Inhibition of Maximal Electroshock-induced seizure ([5]; SC, 600 mg/kg, at 24 hours, Phase II): 37% | Anticonvulsant activity, Maximal Electroshock (Phase I) ([5]; SC): I | Protection against Maximal Electroshock-induced seizures (in words) ([5]; running text): onset of protection against Maximal Electroshock-induced seizure was slower but the activity was prolonged over the 24-hour period; also recorded: inactive in protecting against the Maximal Electroshock-induced seizure in routine Phase I studies; also recorded: active in protecting against this seizure when higher doses were used and the activity was evaluated at different time periods | ED50 for protection against Metrazol-induced seizures ([3]; Phase II, SC): 38 mg/kg | Time of peak effect, inhibition of Metrazol-induced seizures ([3]; SC, 100 mg/kg, Phase II): 2 h | Protection against Metrazol-induced seizures (in words) ([3]; running text): rapid onset of protection against the Metrazol-induced seizure which decreases over the extrapolated period of 7 hours | Anticonvulsant activity (in words) ([1]; running text): effective at the higher doses studied and for prolonged periods of up to 4 hours | LD50 ([4]; 24-hour, Phase II): 441 mg/kg

C1CCc2nnnn2CC1 [Metrazol, pentylenetetrazol]
Seizures produced [7]: greater than 97 % of mice | CNS stimulation / rotating rod toxicity (known) [8]: potent central nervous system stimulant; also recorded: marked rotating rod toxicity

CCC1(CCC(C)C)C(=O)NC(=O)NC1=O [Na amobarbital, sodium (Na) amobarbital, reference compound]
Protection Against Seizure [5]: 0 Percent protected | Average Sleep Time [6]: 0 min
